Results reported in ChEMBL document CHEMBL3286339, “Synthesis and in vivo SAR study of indolin-2-one-based multi-targeted inhibitors as potential anticancer agents” (Eur J Med Chem, 2014).
Activity calls are given as the source filed them. No cut-off for these calls is given here.

Assays:
Mus musculus [1] = assay: Toxicity in BALB/c nude mouse xenografted with human HT-29 cells assessed as severe weight loss at 80 mg/kg/day administered qd measured after 6 days; assay type: organism-based; conditions: in vivo, 144 h
Aorta [2] = assay: Inhibition of micrangium generation in Sprague-Dawley rat aortic ring at 0.2 ug/ml after 6 days by inverted microscopic analysis; assay type: functional, tissue-based
Aorta [3] = assay: Antiangiogenic activity in Sprague-Dawley rat aortic ring at 0.2 ug/ml after 6 days by inverted microscopic analysis; assay type: functional, tissue-based
Mus musculus [4] = assay: Toxicity in BALB/c nude mouse xenografted with human HT-29 cells assessed as mortality at 80 mg/kg/day administered qd measured on day 15; assay type: organism-based; conditions: in vivo
HT-29 = assay: Antitumor activity against human HT-29 cells xenografted in BALB/c nude mouse assessed as tumor growth inhibition at 80 mg/kg/day administered qd measured up to day 21 relative to control; assay type: functional
Mus musculus [5] = assay: Toxicity in BALB/c nude mouse xenografted with human NCI-H460 cells assessed as bloody stool at 40 mg/kg/day administered qd; assay type: organism-based; conditions: in vivo
NCI-H460 [6] = assay: Antitumor activity against human NCI-H460 cells xenografted in BALB/c nude mouse assessed as tumor growth inhibition at 40 mg/kg/day administered qd measured up to day 21 relative to control; assay type: functional
Mus musculus [7] = assay: Toxicity in BALB/c nude mouse xenografted with human NCI-H460 cells assessed as severe weight loss at 40 mg/kg/day administered qd; assay type: organism-based; conditions: in vivo
Mus musculus [8] = assay: Toxicity in BALB/c nude mouse xenografted with human NCI-H460 cells assessed as hematuria at 40 mg/kg/day administered qd; assay type: organism-based; conditions: in vivo
Mus musculus [9] = assay: Toxicity in BALB/c nude mouse xenografted with human HT-29 cells assessed as bloody stool at 80 mg/kg/day administered qd measured up to day 21; assay type: organism-based; conditions: in vivo
Mus musculus [10] = assay: Toxicity in BALB/c nude mouse xenografted with human HT-29 cells assessed as weight loss at 80 mg/kg/day administered qd measured up to day 21; assay type: organism-based; conditions: in vivo
Mus musculus [11] = assay: Toxicity in BALB/c nude mouse xenografted with human HT-29 cells assessed as hematuria at 80 mg/kg/day administered qd measured up to day 21; assay type: organism-based; conditions: in vivo
Mus musculus [12] = assay: Toxicity in BALB/c nude mouse xenografted with human HT-29 cells assessed as weakness at 80 mg/kg/day administered qd; assay type: organism-based; conditions: in vivo
Mus musculus [13] = assay: Toxicity in BALB/c nude mouse xenografted with human HT-29 cells assessed as mortality at 80 mg/kg/day administered qd measured after 6 days; assay type: organism-based; conditions: in vivo, 144 h
Mus musculus [14] = assay: Toxicity in BALB/c nude mouse xenografted with human HT-29 cells assessed as development of diarrhea at 80 mg/kg/day administered qd; assay type: organism-based; conditions: in vivo
Mus musculus [15] = assay: Toxicity in BALB/c nude mouse xenografted with human HT-29 cells assessed as lethargic behavior at 80 mg/kg/day administered qd; assay type: organism-based; conditions: in vivo
Mus musculus [16] = assay: Toxicity in BALB/c nude mouse xenografted with human HT-29 cells assessed as severe weight loss at 80 mg/kg/day administered qd; assay type: organism-based; conditions: in vivo
Mus musculus [17] = assay: Toxicity in BALB/c nude mouse xenografted with human HT-29 cells assessed as severe weight loss at 80 mg/kg/day administered qd measured after 3 days; assay type: organism-based; conditions: in vivo, 72 h
Mus musculus [18] = assay: Toxicity in BALB/c nude mouse xenografted with human HT-29 cells assessed as mortality at 80 mg/kg/day administered qd measured on day 12; assay type: organism-based; conditions: in vivo
Mus musculus [19] = assay: Toxicity in BALB/c nude mouse xenografted with human HT-29 cells assessed as severe weight loss at 80 mg/kg/day administered qd measured after 9 days; assay type: organism-based; conditions: in vivo, 216 h
Mus musculus [20] = assay: Toxicity in BALB/c nude mouse xenografted with human NCI-H460 cells assessed as severe weight loss at 40 mg/kg/day administered qd measured after 9 days; assay type: organism-based; conditions: in vivo, 216 h
Mus musculus [21] = assay: Toxicity in BALB/c nude mouse xenografted with human NCI-H460 cells assessed as lethargic behavior at 40 mg/kg/day administered qd; assay type: organism-based; conditions: in vivo
Mus musculus [22] = assay: Toxicity in BALB/c nude mouse xenografted with human NCI-H460 cells assessed as mortality at 40 mg/kg/day administered qd measured on day 15; assay type: organism-based; conditions: in vivo
Mus musculus [23] = assay: Toxicity in BALB/c nude mouse xenografted with human NCI-H460 cells assessed as bloody stool at 40 mg/kg/day administered qd measured after 9 days; assay type: organism-based; conditions: in vivo, 216 h
Mus musculus [24] = assay: Toxicity in BALB/c nude mouse xenografted with human NCI-H460 cells assessed as weakness at 40 mg/kg/day administered qd; assay type: organism-based; conditions: in vivo
[25] = Antiproliferative activity against human HK2 cells after 72 hrs by MTT assay; assay type: cell-based; conditions: HK-2, 72 h
Mus musculus [26] = assay: Toxicity in BALB/c nude mouse xenografted with human HT-29 cells assessed as severe weight loss at 80 mg/kg/day administered qd measured after 12 to 15 days; assay type: organism-based; conditions: in vivo
Mus musculus [27] = assay: Toxicity in BALB/c nude mouse xenografted with human HT-29 cells assessed as mortality at 80 mg/kg/day administered qd measured on day 21; assay type: organism-based; conditions: in vivo
[28] = Antiproliferative activity against human LO2 cells after 72 hrs by MTT assay; assay type: cell-based; conditions: L02, 72 h
[29] = Antiproliferative activity against human NCI-H3122 cells after 72 hrs by MTT assay; assay type: functional, cell-based; conditions: NCI-H3122, 72 h
TT = assay: Antiproliferative activity against human TT cells pretreated for 72 hrs followed by compound-washout measured after 72 hrs by MTT assay; assay type: functional, cell-based
NCI-H526 = assay: Antiproliferative activity against human NCI-H526 cells after 72 hrs by MTT assay; assay type: functional, cell-based; conditions: NCI-H526, 72 h
[30] = Antiproliferative activity against human MV411 cells after 48 hrs by MTT assay; assay type: functional, cell-based; conditions: MV4-11, 48 h
Mus musculus [31] = assay: Toxicity in BALB/c nude mouse xenografted with human NCI-H460 cells assessed as change in body weight at 40 mg/kg/day administered qd relative to control; assay type: organism-based; conditions: in vivo
[32] = Antiproliferative activity against human Bel7402 cells after 72 hrs by MTT assay; assay type: functional, cell-based; conditions: Bel-7402, 72 h
NCI-H460 [33] = assay: Antiproliferative activity against human NCI-H460 cells after 72 hrs by MTT assay; assay type: functional, cell-based; conditions: NCI-H460, 72 h
Mus musculus [34] = assay: Toxicity in BALB/c nude mouse xenografted with human HT-29 cells assessed as change in body weight at 80 mg/kg/day administered qd relative to control; assay type: organism-based; conditions: in vivo

## CCN(CC)CCC(=O)Nc1c(C)[nH]c(/C=C2\C(=O)Nc3ccc(F)cc32)c1C
Mus musculus [1]
  Activity: Toxic
Aorta [2]
  inhibition: Active
Aorta [3]
  inhibition: Active
Mus musculus [4]
  Activity: Toxic
HT-29
  Activity: Active

## Cc1[nH]c(/C=C2\C(=O)Nc3ccc(F)cc32)c(C)c1NC(=O)CCN1CCCC1
Mus musculus [5]
  Activity: Non-toxic
NCI-H460 [6]
  TGI: Active
Aorta [2]
  inhibition: Active
Aorta [3]
  inhibition: Active
Mus musculus [7]
  Activity: Non-toxic
Mus musculus [8]
  Activity: Non-toxic

## Cc1[nH]c(/C=C2\C(=O)Nc3ccc(F)cc32)c(C)c1C(=O)N1CCN(C)CC1
Mus musculus [9]
  Activity: Non-toxic
Mus musculus [10]
  Activity: Non-toxic
Mus musculus [11]
  Activity: Non-toxic
Aorta [2]
  inhibition: Active
Aorta [3]
  inhibition: Active
HT-29
  Activity: Active

## Cc1[nH]c(/C=C2\C(=O)Nc3ccc(F)cc32)c(C)c1C(=O)N1CCC(N(C)C)CC1
Mus musculus [12]
  Activity: Toxic
Mus musculus [1]
  Activity: Toxic
Aorta [2]
  inhibition: Active
Aorta [3]
  inhibition: Active
Mus musculus [13]
  Activity: Toxic
HT-29
  Activity: Active
Mus musculus [14]
  Activity: Toxic
Mus musculus [15]
  Activity: Toxic

## CCN1CCN(CCC(=O)Nc2c(C)[nH]c(/C=C3\C(=O)Nc4ccc(F)cc43)c2C)CC1
Mus musculus [9]
  Activity: Non-toxic
Mus musculus [16]
  Activity: Non-toxic
Mus musculus [5]
  Activity: Non-toxic
NCI-H460 [6]
  TGI: Active
Mus musculus [11]
  Activity: Non-toxic
Aorta [2]
  inhibition: Active
Aorta [3]
  inhibition: Active
Mus musculus [7]
  Activity: Non-toxic
Mus musculus [8]
  Activity: Non-toxic
HT-29
  Activity: Active

## CCN(CC)CCC(=O)Nc1c(C)[nH]c(/C=C2\C(=O)Nc3ccc(Cl)cc32)c1C
Aorta [2]
  inhibition: Active
Aorta [3]
  inhibition: Active
Mus musculus [17]
  Activity: Toxic
Mus musculus [18]
  Activity: Toxic

## CCN(CC)C1CCN(C(=O)c2c(C)[nH]c(/C=C3\C(=O)Nc4ccc(F)cc43)c2C)CC1
Mus musculus [12]
  Activity: Toxic
Mus musculus [1]
  Activity: Toxic
Aorta [2]
  inhibition: Active
Aorta [3]
  inhibition: Active
Mus musculus [4]
  Activity: Toxic
Mus musculus [19]
  Activity: Toxic
HT-29
  Activity: Active
Mus musculus [14]
  Activity: Toxic
Mus musculus [15]
  Activity: Toxic

## Cc1[nH]c(/C=C2\C(=O)Nc3ccc(F)cc32)c(C)c1NC(=O)/C=C/CN(C)C
Aorta [2]
  inhibition: Active
Aorta [3]
  inhibition: Active
HT-29
  Activity: inactive

## CCN1CCN(C(=O)c2c(C)[nH]c(/C=C3\C(=O)Nc4ccc(F)cc43)c2C)CC1
Mus musculus [9]
  Activity: Non-toxic
Mus musculus [10]
  Activity: Non-toxic
Mus musculus [11]
  Activity: Non-toxic
Aorta [2]
  inhibition: Active
Aorta [3]
  inhibition: Active
HT-29
  Activity: Active

## Cc1[nH]c(/C=C2\C(=O)Nc3ccc(F)cc32)c(C)c1NC(=O)CN1CCN(C)CC1
Mus musculus [20]
  Activity: Toxic
Aorta [2]
  inhibition: Active
Aorta [3]
  inhibition: Active
Mus musculus [21]
  Activity: Toxic
Mus musculus [22]
  Activity: Toxic
Mus musculus [23]
  Activity: Toxic
Mus musculus [24]
  Activity: Toxic

## Cc1[nH]c(/C=C2\C(=O)Nc3ccc(F)cc32)c(C)c1NC(=O)CCN1CCOCC1
Mus musculus [9]
  Activity: Non-toxic
Mus musculus [11]
  Activity: Non-toxic
Aorta [2]
  inhibition: Active
Aorta [3]
  inhibition: Active
HT-29
  Activity: inactive

## Cc1[nH]c(/C=C2\C(=O)Nc3ccc(F)cc32)c(C)c1NC(=O)CN1CCCCC1
Mus musculus [5]
  Activity: Non-toxic
NCI-H460 [6]
  TGI: inactive
Aorta [2]
  inhibition: Active
Aorta [3]
  inhibition: Active
Mus musculus [7]
  Activity: Non-toxic
Mus musculus [8]
  Activity: Non-toxic

## Cc1[nH]c(/C=C2\C(=O)Nc3ccc(F)cc32)c(C)c1NC(=O)CCCN(C)C
Aorta [2]
  inhibition: Active
Aorta [3]
  inhibition: Active
HT-29
  Activity: Active

## CCN(CC)CCC(=O)Nc1c(C)[nH]c(/C=C2\C(=O)Nc3ccc(Br)cc32)c1C
Mus musculus [16]
  Activity: Toxic
Aorta [2]
  inhibition: Active
Aorta [3]
  inhibition: Active
HT-29
  Activity: Active

## Cc1[nH]c(/C=C2\C(=O)Nc3ccc(F)cc32)c(C)c1NC(=O)CCN1CCCCC1
Mus musculus [9]
  Activity: Non-toxic
Mus musculus [16]
  Activity: Non-toxic
Mus musculus [5]
  Activity: Non-toxic
NCI-H460 [6]
  TGI: Active
Mus musculus [11]
  Activity: Non-toxic
Aorta [2]
  inhibition: Active
Aorta [3]
  inhibition: Active
Mus musculus [7]
  Activity: Non-toxic
Mus musculus [8]
  Activity: Non-toxic
HT-29
  Activity: Active

## CCN(CC)CCNC(=O)c1c(C)[nH]c(/C=C2\C(=O)Nc3ccc(F)cc32)c1C [SUNITINIB]
[25]
  IC50: 5850 nM
Mus musculus [26]
  Activity: Toxic
Mus musculus [27]
  Activity: Toxic
[28]
  IC50: 19900 nM
[29]
  IC50: 830 nM
TT
  IC50: 40 nM
NCI-H526
  IC50: 1010 nM
[30]
  IC50: 3 nM
NCI-H460 [6]
  TGI: Active
Mus musculus [31]
  Activity: 12.3%
HT-29
  Activity: Active
HT-29; record 2
  Activity: 88.9%
[32]
  IC50: 2670 nM
NCI-H460 [33]
  IC50: 4310 nM
Mus musculus [34]
  Activity: -24.1%

## Cc1[nH]c(/C=C2\C(=O)Nc3ccc(F)cc32)c(C)c1C(=O)N1CCN(CCO)CC1
Aorta [2]
  inhibition: Active
Aorta [3]
  inhibition: Active
HT-29
  Activity: inactive

## Cc1[nH]c(/C=C2\C(=O)Nc3ccc(F)cc32)c(C)c1NC(=O)CCN(C)C
Aorta [2]
  inhibition: Active
Aorta [3]
  inhibition: Active
HT-29
  Activity: Active
